How the values were obtained:
Assay type in all cases: in vivo
Conditions in all cases: 100 ppm, 1 Day Protectant
[1] = tested on: Rhyncosporium secalis; assay: Barley scald (RHYNSE) disease control; parameters: key: A: > 80; B: ≤ 80; C: Not Tested; D: No Activity Observed in the Reported Assay
Description: All fungicides were evaluated using the aforementioned method for their activity vs. all target diseases, unless stated otherwise. Wheat leaf blotch and brown rust activity were also evaluated using track spray applications, in which case the fungicides were formulated as EC formulations, containing 0.1% Trycol 5941 in the spray solutions. Wheat plants (variety Yuma) were grown from seed in a greenhouse in 50% mineral soil/50% soil-less Metro mix until the first leaf was fully emerged, with 7-10 seedlings per pot. These plants were inoculated with an aqueous spore suspension of Zymoseptoria tritici either prior to or after fungicide treatments. After inoculation the plants were kept in 100% relative humidity (one day in a dark dew chamber followed by two to three days in a lighted dew chamber at 20° C.) to permit spores to germinate and infect the leaf. The plants were then transferred to a greenhouse set at 20° C. for disease to develop. When disease symptoms were fully expressed on the 1st leaves of untreated plants, infection levels were assessed on a scale of 0 to 100 percent disease severity. Percent disease control was calculated using the ratio of disease severity on treated plants relative to untreated plants. Example H: Evaluation of Fungicidal Activity: Barley Scald (Rhyncosporium secalis; Bayer Code […]) Barley seedlings (variety Harrington) were propagated in soil-less Metro mix, with each pot having 8 to 12 plants, and used in the test when first leaf was fully emerged. Test plants were inoculated by an aqueous spore suspension of Rhyncosporium secalis 24 hr after fungicide treatments. After inoculation the plants were kept in a dew room at 22° C. with 100% relative humidity for 48 hr. The plants were then transferred to a greenhouse set at 20° C. for disease to develop. Fungicide formulation, application and disease assessment on the sprayed leaves followed the procedures as described in the Example A.

[2] = tested on: Colletotrichum lagenarium; assay: Cucumber anthracnose (COLLLA) disease control
Description: All fungicides were evaluated using the aforementioned method for their activity vs. all target diseases, unless stated otherwise. Wheat leaf blotch and brown rust activity were also evaluated using track spray applications, in which case the fungicides were formulated as EC formulations, containing 0.1% Trycol 5941 in the spray solutions. Wheat plants (variety Yuma) were grown from seed in a greenhouse in 50% mineral soil/50% soil-less Metro mix until the first leaf was fully emerged, with 7-10 seedlings per pot. These plants were inoculated with an aqueous spore suspension of Zymoseptoria tritici either prior to or after fungicide treatments. After inoculation the plants were kept in 100% relative humidity (one day in a dark dew chamber followed by two to three days in a lighted dew chamber at 20° C.) to permit spores to germinate and infect the leaf. The plants were then transferred to a greenhouse set at 20° C. for disease to develop. When disease symptoms were fully expressed on the 1st leaves of untreated plants, infection levels were assessed on a scale of 0 to 100 percent disease severity. Percent disease control was calculated using the ratio of disease severity on treated plants relative to untreated plants. Example K: Evaluation of Fungicidal Activity: Cucumber Anthracnose (Colletotrichum lagenarium; Bayer Code COLLLA) Cucumber seedlings (variety Bush Pickle) were propagated in soil-less Metro mix, with each pot having one plant, and used in the test when 12 to 14 days old. Test plants were inoculated with an aqueous spore suspension of Colletotrichum lagenarium 24 hr after fungicide treatments. After inoculation the plants were kept in a dew room at 22° C. with 100% relative humidity for 48 hr to permit spores to germinate and infect the leaf. The plants were then transferred to a growth room set at 22° C. for disease to develop. Fungicide formulation, application and disease assessment on the sprayed leaves followed the procedures as described in the Example A.

[3] = tested on: Erysiphe cichoracearum; assay: Powdery mildew of cucumber (ERYSCI) disease control
Description: All fungicides were evaluated using the aforementioned method for their activity vs. all target diseases, unless stated otherwise. Wheat leaf blotch and brown rust activity were also evaluated using track spray applications, in which case the fungicides were formulated as EC formulations, containing 0.1% Trycol 5941 in the spray solutions. Wheat plants (variety Yuma) were grown from seed in a greenhouse in 50% mineral soil/50% soil-less Metro mix until the first leaf was fully emerged, with 7-10 seedlings per pot. These plants were inoculated with an aqueous spore suspension of Zymoseptoria tritici either prior to or after fungicide treatments. After inoculation the plants were kept in 100% relative humidity (one day in a dark dew chamber followed by two to three days in a lighted dew chamber at 20° C.) to permit spores to germinate and infect the leaf. The plants were then transferred to a greenhouse set at 20° C. for disease to develop. When disease symptoms were fully expressed on the 1st leaves of untreated plants, infection levels were assessed on a scale of 0 to 100 percent disease severity. Percent disease control was calculated using the ratio of disease severity on treated plants relative to untreated plants. […] Plants were inoculated with a spore suspension 24 hr following fungicide treatments. After inoculation the plants remained in the greenhouse set at 20° C. until disease was fully expressed. Fungicide formulation, application and disease assessment on the sprayed leaves followed the procedures as described in the Example A.

SMILES | RHYNSE disease control, 1DP [1] | COLLLA disease control, 1DP [2] | ERYSCI disease control, 1DP [3]
CCCOC(CC)C(Oc1ccccc1)C(C)OC(=O)C(C)NC(=O)c1nccc(OC)c1OCOC(C)=O (centres unmarked) [Cmpd 446] | B (≤ 80) | B (≤ 80) | –
COc1ccnc(C(=O)N[C@@H](C)C(=O)O[C@@H](C)[C@H](Oc2ccccc2)C(C)C)c1OCOC(C)=O [Cmpd 475] | B (≤ 80) | A (> 80) | B (≤ 80)
CC[C@@H](CCOC)[C@@H](Oc1ccccc1)[C@H](C)OC(=O)[C@H](C)NC(=O)c1nccc(OC)c1OCOC(C)=O [Cmpd 476] | B (≤ 80) | B (≤ 80) | B (≤ 80)
CCC(CC)[C@@H](Oc1ccccc1)[C@H](C)OC(=O)[C@H](C)NC(=O)c1nccc(OC)c1OCOC(C)=O [Cmpd 477] | B (≤ 80) | A (> 80) | A (> 80)
COc1ccnc(C(=O)N[C@@H](C)C(=O)O[C@@H](C)[C@H](Oc2ccccc2)C(C)C)c1OC(C)=O [Cmpd 478] | B (≤ 80) | B (≤ 80) | B (≤ 80)
CCC(CC)[C@@H](Oc1ccccc1)[C@H](C)OC(=O)[C@H](C)NC(=O)c1nccc(OC)c1OC(C)=O [Cmpd 479] | B (≤ 80) | A (> 80) | A (> 80)
CC[C@@H](CCOC)[C@@H](Oc1ccccc1)[C@H](C)OC(=O)[C@H](C)NC(=O)c1nccc(OC)c1OC(C)=O [Cmpd 482] | – | A (> 80) | B (≤ 80)
COc1ccnc(C(=O)N[C@@H](C)C(=O)O[C@@H](C)[C@H](Oc2ccccc2)c2ccccc2)c1OCOC(C)=O [Cmpd 500] | A (> 80) | A (> 80) | –
COc1ccnc(C(=O)N[C@@H](C)C(=O)O[C@@H](C)[C@H](Oc2ccccc2)C2CCCC2)c1OCOC(C)=O [Cmpd 556] | B (≤ 80) | A (> 80) | –
COc1ccnc(C(=O)N[C@@H](C)C(=O)O[C@@H](C)[C@H](Oc2cccc(Cl)c2)C(C)C)c1OC(C)=O [Cmpd 566] | A (> 80) | A (> 80) | –
COc1ccnc(C(=O)N[C@@H](C)C(=O)O[C@@H](C)[C@H](Oc2cccc(F)c2)c2ccccc2)c1OCOC(C)=O [Cmpd 574] | A (> 80) | A (> 80) | –
CCC(CC)[C@@H](Oc1ccc(F)cc1)[C@H](C)OC(=O)[C@H](C)NC(=O)c1nccc(OC)c1OCOC(C)=O [Cmpd 587] | B (≤ 80) | A (> 80) | –
COc1ccnc(C(=O)N[C@@H](C)C(=O)O[C@@H](C)[C@H](Oc2cc(F)cc(Cl)c2)C(C)C)c1OCOC(C)=O [Cmpd 617] | B (≤ 80) | A (> 80) | –
COc1ccnc(C(=O)N[C@@H](C)C(=O)O[C@@H](C)[C@H](Oc2cccc(Cl)c2)c2ccccc2)c1OCOC(C)=O [Cmpd 637] | D | B (≤ 80) | –
COc1ccnc(C(=O)N[C@@H](C)C(=O)O[C@@H](C)[C@H](Oc2ccccc2Cl)c2ccccc2)c1OC(C)=O [Cmpd 640] | B (≤ 80) | A (> 80) | –
COc1ccnc(C(=O)N[C@@H](C)C(=O)O[C@@H](C)[C@H](Oc2cc(F)cc(Cl)c2)c2ccccc2)c1OC(C)=O [Cmpd 642] | A (> 80) | A (> 80) | –
CCC(C)C(Oc1ccccc1)C(C)OC(=O)C(C)NC(=O)c1nccc(OC)c1OC(C)=O (centres unmarked) [Cmpd 691] | B (≤ 80) | A (> 80) | –
CCC(C)C(Oc1ccccc1)C(C)OC(=O)C(C)NC(=O)c1nccc(OC)c1OCOC(C)=O (centres unmarked) [Cmpd 692] | A (> 80) | A (> 80) | –
C=CC(C)C(Oc1ccccc1)C(C)OC(=O)C(C)NC(=O)c1nccc(OC)c1OCOC(C)=O (centres unmarked) [Cmpd 694] | B (≤ 80) | A (> 80) | –
CCC[C@@H](Oc1ccccc1)[C@H](C)OC(=O)[C@H](C)NC(=O)c1nccc(OC)c1OCOC(C)=O [Cmpd 699] | B (≤ 80) | A (> 80) | –
COc1ccnc(C(=O)N[C@@H](C)C(=O)O[C@@H](C)[C@@H](CC(C)C)Oc2ccccc2)c1OCOC(=O)C(C)C [Cmpd 1101] | A (> 80) | A (> 80) | –

— patent US20180000085A1, “USE OF PICOLINAMIDE COMPOUNDS WITH FUNGICIDAL ACTIVITY” (DOW AGROSCIENCES LLC, priority 2014, published 2018)
